Laboratory results: patent US20260248799A1, “COMBINATIONS OF RETINALDEHYDE DEHYDROGENASE 1 (RALDH1) INHIBITORS AND IMMUNOSTIMULATORS AND METHODS USING SAME” (The Trustees of the University of Pennsylvania, priority 2023, published 2026)

Tests used:
[1] = IP pharmacokinetics and tissue distribution of C-86 in C57BL/6J mice; assay type: in vivo, mouse; conditions: for AUC(0-inf) / Cmax: male, C57BL/6J, mouse, mice, IP
[2] = molecular target: T1, Monoamine Oxidase MAO-B (Homo sapiens, UniProt P27338); test: Safetyscreen: MAO-B; assay type: biochemical; conditions: read-out: % Inh. Monoamine Oxidase MAO-B
T1 construct: Eurofins Cerep Panlabs (contract panel)
T1 sequence (P27338 whole entry): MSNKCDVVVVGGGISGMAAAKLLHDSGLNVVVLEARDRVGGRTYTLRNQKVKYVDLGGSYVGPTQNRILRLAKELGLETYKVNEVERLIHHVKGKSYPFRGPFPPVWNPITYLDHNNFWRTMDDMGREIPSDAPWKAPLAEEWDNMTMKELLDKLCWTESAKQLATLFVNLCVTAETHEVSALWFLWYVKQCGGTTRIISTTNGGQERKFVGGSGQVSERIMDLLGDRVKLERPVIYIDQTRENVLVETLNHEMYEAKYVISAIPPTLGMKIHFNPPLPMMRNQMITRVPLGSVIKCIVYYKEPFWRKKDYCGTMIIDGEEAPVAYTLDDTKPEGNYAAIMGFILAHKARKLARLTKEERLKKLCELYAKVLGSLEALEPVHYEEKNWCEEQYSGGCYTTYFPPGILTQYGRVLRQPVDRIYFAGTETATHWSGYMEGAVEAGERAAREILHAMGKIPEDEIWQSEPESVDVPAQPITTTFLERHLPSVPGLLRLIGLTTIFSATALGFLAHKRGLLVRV

[3] = molecular target: T2, Peptidase, Angiotensin Converting Enzyme (Oryctolagus cuniculus, UniProt P12822); test: Safetyscreen: ACE; assay type: biochemical, rabbit; conditions: read-out: % Inh. Peptidase, Angiotensin Converting Enzyme
T2 construct: Eurofins Cerep Panlabs (contract panel)
T2 sequence (P12822 34-1310): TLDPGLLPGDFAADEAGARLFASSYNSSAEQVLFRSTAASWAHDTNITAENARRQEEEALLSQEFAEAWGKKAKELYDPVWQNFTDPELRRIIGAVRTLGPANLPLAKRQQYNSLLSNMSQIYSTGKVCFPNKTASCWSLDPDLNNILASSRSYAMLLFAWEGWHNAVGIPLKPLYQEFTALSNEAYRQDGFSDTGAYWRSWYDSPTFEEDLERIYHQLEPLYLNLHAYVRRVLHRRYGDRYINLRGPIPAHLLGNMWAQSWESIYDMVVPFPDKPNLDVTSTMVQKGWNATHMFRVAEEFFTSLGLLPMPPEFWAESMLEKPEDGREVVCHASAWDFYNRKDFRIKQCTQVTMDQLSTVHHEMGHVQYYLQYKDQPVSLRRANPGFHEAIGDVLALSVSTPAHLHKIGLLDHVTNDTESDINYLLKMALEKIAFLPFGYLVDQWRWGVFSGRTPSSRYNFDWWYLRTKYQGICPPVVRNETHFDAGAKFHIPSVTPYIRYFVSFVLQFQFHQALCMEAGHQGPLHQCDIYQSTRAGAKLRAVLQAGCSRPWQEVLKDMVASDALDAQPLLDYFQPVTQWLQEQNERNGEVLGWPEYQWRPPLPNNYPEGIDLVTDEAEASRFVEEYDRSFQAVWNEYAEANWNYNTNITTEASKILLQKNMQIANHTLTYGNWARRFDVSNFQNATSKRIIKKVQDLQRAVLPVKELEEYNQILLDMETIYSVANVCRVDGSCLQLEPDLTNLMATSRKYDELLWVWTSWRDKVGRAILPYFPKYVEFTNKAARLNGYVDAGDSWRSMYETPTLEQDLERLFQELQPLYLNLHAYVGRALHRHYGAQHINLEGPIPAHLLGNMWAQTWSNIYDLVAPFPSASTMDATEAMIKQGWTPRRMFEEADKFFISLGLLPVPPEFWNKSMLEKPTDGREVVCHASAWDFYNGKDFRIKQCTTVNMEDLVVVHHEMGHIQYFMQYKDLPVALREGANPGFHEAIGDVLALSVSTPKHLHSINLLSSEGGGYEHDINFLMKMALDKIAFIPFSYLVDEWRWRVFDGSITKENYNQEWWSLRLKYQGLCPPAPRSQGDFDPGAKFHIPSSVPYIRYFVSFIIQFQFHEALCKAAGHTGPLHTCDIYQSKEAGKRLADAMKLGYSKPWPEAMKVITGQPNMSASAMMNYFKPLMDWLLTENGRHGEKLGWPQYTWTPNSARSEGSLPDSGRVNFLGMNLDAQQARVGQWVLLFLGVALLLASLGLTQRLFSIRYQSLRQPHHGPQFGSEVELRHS

[4] = molecular target: T3, Adrenergic β1 (Homo sapiens, UniProt P08588); test: Safetyscreen: Adrenergic β1; assay type: binding; conditions: read-out: % Inh. Adrenergic β1
T3 construct: Eurofins Cerep Panlabs (contract panel)
T3 sequence (P08588 whole entry): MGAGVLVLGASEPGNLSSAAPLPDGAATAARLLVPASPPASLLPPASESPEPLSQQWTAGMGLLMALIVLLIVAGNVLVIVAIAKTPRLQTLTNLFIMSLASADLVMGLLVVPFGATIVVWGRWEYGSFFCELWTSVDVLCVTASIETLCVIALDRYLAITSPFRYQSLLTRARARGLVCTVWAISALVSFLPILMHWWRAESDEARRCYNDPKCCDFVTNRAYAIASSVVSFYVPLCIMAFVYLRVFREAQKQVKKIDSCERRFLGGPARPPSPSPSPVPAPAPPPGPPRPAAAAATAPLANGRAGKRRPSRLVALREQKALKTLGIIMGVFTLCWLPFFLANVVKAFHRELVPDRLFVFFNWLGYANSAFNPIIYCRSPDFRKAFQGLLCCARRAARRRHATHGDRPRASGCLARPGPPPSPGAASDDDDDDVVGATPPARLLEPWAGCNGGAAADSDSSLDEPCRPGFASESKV

[5] = molecular target: T4, Adrenergic β2 (Homo sapiens, UniProt P07550); test: Safetyscreen: Adrenergic β2; assay type: binding; conditions: read-out: % Inh. Adrenergic β2
T4 construct: Eurofins Cerep Panlabs (contract panel)
T4 sequence (P07550 whole entry): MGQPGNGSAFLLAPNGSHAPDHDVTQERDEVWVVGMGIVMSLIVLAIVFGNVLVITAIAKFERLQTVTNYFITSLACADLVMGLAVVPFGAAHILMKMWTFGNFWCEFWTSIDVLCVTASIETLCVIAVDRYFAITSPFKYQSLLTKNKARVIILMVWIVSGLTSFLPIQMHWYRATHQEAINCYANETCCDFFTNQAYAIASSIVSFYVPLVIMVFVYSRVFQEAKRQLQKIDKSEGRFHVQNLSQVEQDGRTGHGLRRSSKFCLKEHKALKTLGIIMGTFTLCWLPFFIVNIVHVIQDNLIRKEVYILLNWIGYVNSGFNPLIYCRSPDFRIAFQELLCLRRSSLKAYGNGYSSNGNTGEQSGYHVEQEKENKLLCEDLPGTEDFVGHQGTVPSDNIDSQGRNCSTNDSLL

[6] = tested on: Calcium Channel L-Type, Dihydropyridine; test: Safetyscreen: Ca channel L-type, dihydropyridine; assay type: binding, rat; conditions: 10 μM
[7] = tested on: Glutamate, Kainate; test: Safetyscreen: Glutamate, Kainate; assay type: binding, rat; conditions: 10 μM
[8] = tested on: Glutamate, NMDA, Glycine; test: Safetyscreen: NMDA, Glycine; assay type: binding, rat; conditions: 10 μM
[9] = tested on: Glutamate, NMDA, Polyamine; test: Safetyscreen: NMDA, Polyamine; assay type: binding, rat; conditions: 10 μM
[10] = molecular target: T5, Melanocortin MC1 (Homo sapiens, UniProt Q01726); test: Safetyscreen: MC1; assay type: binding; conditions: read-out: % Inh. Melanocortin MC1
T5 construct: purchased Eurofins Cereps Panlabs
T5 sequence (Q01726 whole entry): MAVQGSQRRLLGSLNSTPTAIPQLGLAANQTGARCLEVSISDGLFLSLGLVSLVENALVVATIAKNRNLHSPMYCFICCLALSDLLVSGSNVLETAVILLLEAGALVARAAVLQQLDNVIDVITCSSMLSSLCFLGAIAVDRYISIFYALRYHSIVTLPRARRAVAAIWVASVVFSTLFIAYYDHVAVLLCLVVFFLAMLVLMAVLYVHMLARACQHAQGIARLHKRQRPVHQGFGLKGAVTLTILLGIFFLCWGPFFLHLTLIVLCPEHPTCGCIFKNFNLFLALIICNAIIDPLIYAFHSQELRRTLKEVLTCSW

[11] = molecular target: T6, Muscarinic M1 (Homo sapiens, UniProt P11229); test: Safetyscreen: Muscarinic M1; assay type: binding; conditions: read-out: % Inh. Muscarinic M1
T6 construct: Eurofins Cereps Panlabs (contract panel)
T6 sequence (P11229 whole entry): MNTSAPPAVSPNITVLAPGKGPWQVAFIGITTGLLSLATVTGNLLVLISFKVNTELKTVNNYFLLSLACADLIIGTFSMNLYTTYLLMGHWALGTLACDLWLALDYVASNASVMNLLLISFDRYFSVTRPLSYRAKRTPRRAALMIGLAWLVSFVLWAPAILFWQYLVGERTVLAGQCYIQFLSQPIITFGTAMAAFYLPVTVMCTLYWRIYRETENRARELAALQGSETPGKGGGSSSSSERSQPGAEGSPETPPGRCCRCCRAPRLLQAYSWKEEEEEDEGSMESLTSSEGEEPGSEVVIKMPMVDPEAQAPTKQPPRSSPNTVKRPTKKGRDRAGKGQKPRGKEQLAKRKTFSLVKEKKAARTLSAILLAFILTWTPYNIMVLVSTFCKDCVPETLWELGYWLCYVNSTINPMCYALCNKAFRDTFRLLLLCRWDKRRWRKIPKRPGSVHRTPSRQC

[12] = molecular target: T7, Neuropeptide Y Y1 (Homo sapiens, UniProt P25929); test: Safetyscreen: Neuropeptide Y Y1; assay type: binding; conditions: read-out: % Inh. Neuropeptide Y Y1
T7 construct: Eurofins Cereps Panlabs (contract panel)
T7 sequence (P25929 whole entry): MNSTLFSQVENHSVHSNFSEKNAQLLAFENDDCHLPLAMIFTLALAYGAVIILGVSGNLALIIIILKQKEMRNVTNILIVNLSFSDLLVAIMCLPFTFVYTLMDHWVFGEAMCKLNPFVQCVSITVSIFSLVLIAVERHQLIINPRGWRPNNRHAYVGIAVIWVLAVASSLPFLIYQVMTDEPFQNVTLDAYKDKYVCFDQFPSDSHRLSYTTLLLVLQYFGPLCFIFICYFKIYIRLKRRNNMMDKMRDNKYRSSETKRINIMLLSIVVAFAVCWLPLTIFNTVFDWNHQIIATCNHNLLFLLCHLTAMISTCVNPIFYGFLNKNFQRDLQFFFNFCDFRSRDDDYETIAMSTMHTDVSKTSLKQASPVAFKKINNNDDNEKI

[13] = molecular target: T8, Progesterone PR-B (Homo sapiens, UniProt P06401); test: Safetyscreen: Progesterone PR-B; assay type: binding; conditions: read-out: % Inh. Progesterone PR-B
T8 construct: Eurofins Cereps Panlabs (contract panel)
T8 sequence (P06401 whole entry): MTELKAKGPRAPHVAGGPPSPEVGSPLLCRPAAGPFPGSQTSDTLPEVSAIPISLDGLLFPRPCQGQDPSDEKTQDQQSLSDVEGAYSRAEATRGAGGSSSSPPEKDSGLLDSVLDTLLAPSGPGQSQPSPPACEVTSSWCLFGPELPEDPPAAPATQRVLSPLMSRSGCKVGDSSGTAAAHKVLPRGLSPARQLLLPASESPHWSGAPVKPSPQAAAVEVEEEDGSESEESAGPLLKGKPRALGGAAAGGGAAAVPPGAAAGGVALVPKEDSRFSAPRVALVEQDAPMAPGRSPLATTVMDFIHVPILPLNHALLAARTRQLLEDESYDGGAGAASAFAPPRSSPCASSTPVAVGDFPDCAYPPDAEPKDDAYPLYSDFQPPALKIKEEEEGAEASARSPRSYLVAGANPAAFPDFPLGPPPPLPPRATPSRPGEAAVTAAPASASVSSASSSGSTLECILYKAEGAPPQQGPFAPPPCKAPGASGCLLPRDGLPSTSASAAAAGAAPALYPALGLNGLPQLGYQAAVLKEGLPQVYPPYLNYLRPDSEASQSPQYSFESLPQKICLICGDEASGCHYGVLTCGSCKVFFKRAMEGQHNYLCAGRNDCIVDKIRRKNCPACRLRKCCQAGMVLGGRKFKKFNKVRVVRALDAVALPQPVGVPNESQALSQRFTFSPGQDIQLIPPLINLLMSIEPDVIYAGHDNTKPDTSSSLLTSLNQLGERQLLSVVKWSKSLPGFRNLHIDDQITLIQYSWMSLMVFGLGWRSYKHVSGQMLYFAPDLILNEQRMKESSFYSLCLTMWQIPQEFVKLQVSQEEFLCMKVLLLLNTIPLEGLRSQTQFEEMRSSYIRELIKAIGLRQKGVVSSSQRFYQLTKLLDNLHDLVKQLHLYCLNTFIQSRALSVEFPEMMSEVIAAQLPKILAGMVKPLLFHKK

[14] = molecular target: T9, Serotonin (5-Hydroxytryptamine) 5-HT2B (Homo sapiens, UniProt P41595); test: Safetyscreen: 5-HT2B; assay type: binding; conditions: read-out: % Inh. Serotonin (5-Hydroxytryptamine) 5-HT2B
T9 construct: Eurofins Cereps Panlabs (contract panel)

## CS(=O)(=O)N1CCN(C(=O)c2cnc3ccc(F)cc3c2N2CCC(C#N)(c3ccccc3)CC2)CC1 [Compound C-86, 1-(6-fluoro-3-(4-(methylsulfonyl)piperazine-1-carbonyl)quinolin-4-yl)-4-phenylpiperidine-4-carbonitrile]
[1]; delivered i.p.
  bio-distribution in various tissues: good bio-distribution
[1]; 10 mg/kg, adipose (mesenteric)
  AUC(0-inf): 121000 ng·h/mL
  Cmax: 45200 ng/mL
[1]; 10 mg/kg, brain
  AUC(0-inf): 753 ng·h/mL
  Cmax: 362 ng/mL
[1]; 10 mg/kg, liver
  AUC(0-inf): 32900 ng·h/mL
  Cmax: 27600 ng/mL
[1]; 10 mg/kg, pancreas
  AUC(0-inf): 35000 ng·h/mL
  Cmax: 34400 ng/mL
[1]; 10 mg/kg, plasma
  AUC(0-inf): 3720 ng·h/mL
  Cmax: 2930 ng/mL
[1]; 30 mg/kg, adipose (mesenteric)
  AUC(0-inf): 832000 ng·h/mL
  Cmax: 140000 ng/mL
[1]; 30 mg/kg, brain
  AUC(0-inf): 4520 ng·h/mL
  Cmax: 1150 ng/mL
[1]; 30 mg/kg, liver
  AUC(0-inf): 174000 ng·h/mL
  Cmax: 70500 ng/mL
[1]; 30 mg/kg, pancreas
  AUC(0-inf): 276000 ng·h/mL
  Cmax: 149000 ng/mL
[1]; 30 mg/kg, plasma
  AUC(0-inf): 28000 ng·h/mL
  Cmax: 11600 ng/mL
[2]
  inhibition at 10 µM: 4%
[3]
  inhibition at 10 µM: -6%
[4]
  inhibition at 10 µM: 3%
[5]
  inhibition at 10 µM: 11%
[6]
  % Inh. Calcium Channel L-Type, Dihydropyridine: 23%
[7]
  % Inh. Glutamate, Kainate: 11%
[8]
  % Inh. Glutamate, NMDA, Glycine: 20%
[9]
  % Inh. Glutamate, NMDA, Polyamine: 1%
[10]
  inhibition at 10 µM: 8%
[11]
  inhibition at 10 µM: 3%
[12]
  inhibition at 10 µM: 11%
[13]
  inhibition at 10 µM: 1%
[14]
  inhibition at 10 µM: -5%
